This is an account of results in patent publication US20220315532A1, “METHODS FOR PREPARING CDK4/6 INHIBITOR AND SALT AND INTERMEDIATE THEREOF” (Gan & Lee Pharmaceuticals Co., Ltd., priority 2019, published 2022).

Type in all cases: physicochemical
The nature of data set [1]: hygroscopicity and crystalline form after moisture absorption.
Data set [2] in a line: solubility in water. Conditions: compared with the free base.
Data set [3] is described as follows: solubility in simulated intestinal fluid (FaSSIF, FeSSIF). Conditions: compared with the free base.
Data set [4] can be described thus: physical and chemical stability under high humidity and illumination. As to conditions: compared with free base.

With `CC1=Nc2c(F)cc(-c3nc(Nc4ccc(C5CCN(C)CC5)cn4)ncc3F)cc2C12CCCC2.O=C(O)/C=C/C(=O)O` [fumarate, fumarate of 5-fluoro-4-(7′-fluoro-2′-methylspiro[cyclopentane-1,3′-indol]-5′-yl)-N-(5-(1-methylpiperidin-4-yl)pyridin-2-yl)pyrimidin-2-amine], the crystalline form stability result in data set [1] (after moisture absorption) is listed as “stable in crystalline form”. Moreover, the hygroscopicity result in data set [1] (compared with the free base) is on record as “low hygroscopicity comparable to the free base”. The solubility in water result in data set [2] is given as “higher solubility”. Also, the “solubility in fasted state simulated intestinal fluid (FaSSIF)” value in data set [3] was “higher solubility”. In data set [4], the “physical and chemical stability” value is “better physical and chemical stability”.
